Like-named read-outs stand apart in the source and are kept apart here. *1 amine or outer side, *2 acyl side, *3 side chain or, on linkers, in order; H or OH if unused. Where a SMILES comes first, the peptide text is derived from it. Bridges are numbered along the chain shown (N, C = ends). [ ]: non-standard residue; d: D form. The star is where a group is joined. Trp(7-F) = N[C@@H](Cc1c[nH]c2c(F)cccc12)C(=O)O; Trp(7-Me) = Cc1cccc2c(C[C@H](N)C(=O)O)c[nH]c12; 2Nal = N[C@@H](Cc1ccc2ccccc2c1)C(=O)O; AEF = NCCOc1ccc(C[C@H](N)C(=O)O)cc1; X1 = O=C(Cc1ccc(CN[*:1])cc1)[*:2]; 3Pal = N[C@@H](Cc1cccnc1)C(=O)O; 4Pal = N[C@@H](Cc1ccncc1)C(=O)O; αMeL = CC(C)C[C@](C)(N)C(=O)O; CH2COCH2 = O=C(C[*:1])C[*:2]; αMeV = CC(C)[C@](C)(N)C(=O)O; 3Amb = NCc1cccc(C(=O)O)c1; Pyrrolidide = C1CCN(*)C1; Dab = NCC[C@H](N)C(=O)O
Target: T1, human IL-23R (Homo sapiens, UniProt Q5VWK5)
T1 construct: UniProtKB—Q5VWK5, amino acids 22-629; secretion signal of the plasmid (Promega N1371); expressed in transfected cells
T1 sequence (Q5VWK5 22-629): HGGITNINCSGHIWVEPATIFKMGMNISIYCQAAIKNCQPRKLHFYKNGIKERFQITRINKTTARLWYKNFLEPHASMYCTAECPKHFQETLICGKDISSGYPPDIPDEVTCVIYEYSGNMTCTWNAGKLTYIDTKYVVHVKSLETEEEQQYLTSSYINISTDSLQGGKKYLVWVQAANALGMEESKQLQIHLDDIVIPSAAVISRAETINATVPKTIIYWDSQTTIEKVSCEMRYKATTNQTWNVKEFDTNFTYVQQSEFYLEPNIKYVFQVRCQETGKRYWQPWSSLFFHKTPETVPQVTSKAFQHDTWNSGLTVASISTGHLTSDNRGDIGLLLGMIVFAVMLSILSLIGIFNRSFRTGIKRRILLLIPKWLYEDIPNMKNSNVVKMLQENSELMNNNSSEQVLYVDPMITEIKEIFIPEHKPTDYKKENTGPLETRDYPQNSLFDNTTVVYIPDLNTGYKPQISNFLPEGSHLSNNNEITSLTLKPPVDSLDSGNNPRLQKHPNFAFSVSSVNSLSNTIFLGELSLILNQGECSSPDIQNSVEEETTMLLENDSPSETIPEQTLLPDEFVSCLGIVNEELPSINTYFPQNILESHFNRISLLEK
Experiment: Binding assay (NanoBRET displacement of fluorophore-labelled reference compound) for estimating binding affinity to human IL-23R
Excerpt: Binding Assay for Estimating Binding Affinity of Compounds to Human IL-23R
The compound binding affinity for IL-23R was estimated by the ability of compounds to displace a fluorophore-labelled reference compound from the human IL-23R. The assay principle relies on Bioluminescence Resonance Energy Transfer (BRET) between a fluorophore-labelled reference compound binding to the IL-23R part of a fusion protein consisting of the IL-23R fused to a Nanoluc luciferase enzyme (Nanoluc). The Nanoluc is placed in the N-terminus in close proximity to the binding domain of the ligand. Upon close proximity between the fluorophore of the fluorophore-labelled compound and the Nanoluc of the fusion protein, bioluminescence energy generated from conversion of a Nanoluc substrate, is transferred to the fluorophore resulting in an increase in BRET. In presence of an unlabelled compound, the unlabelled compound displaces the fluorophore-labelled peptide from its binding site resulting in a decrease in BRET. The concentration for which half of the fluorophore-labelled peptide is displaced by the unlabelled compound depends on the affinity of the compound for the IL-23R, and is termed the IC50 concentration. An estimated affinity (K) of the unlabelled compound for the IL-23R may be calculated using the Cheng-Prussov equation, which takes into account the concentration of the fluorophore-labelled compound used, and the affinity of the fluorophore-labelled compound for IL-23R.
The plasmid also contained a gene to confer resistance for the antibiotic hygromycin. A cell line stably expressing the Nluc-IL23R fusion protein was generated by transfection of HEK293 cells with the expression plasmid and selected with hygromycin for 3 weeks in Growth medium consisting of DMEM w/Glutamax-I containing, 10% V/V FBS, 1% V/V P/S, 1 mM Sodium Pyruvate, and 1×NEAA, and 0.3 mg/mL hygromycin. The remaining cells were propagated and considered a stable expressing Nluc-IL23R fusion protein pool clone.
Cells expressing the Nluc-IL23R fusion protein were expanded in Growth medium and membranes prepared by homogenization of a cell pellet from 18 T175 flasks (4° C. in subsequent steps). The cell pellet was lysed Tris 10 mM, 7.5, 1 mM EDTA and protease inhibitors (Complete, Roche) and homogenized using a 15 mL glass-dounce by 50 strokes. The homogenate was spun at spin @1500 rpm for 10 min, the supernatant transferred to SV-34 tubes and spun at 40000 g for 20 min at 4° C. to pellet the crude membranes. The supernatant was then removed, the pellet resuspended in 5 mL buffer containing 50 mM HEPES pH 7.4, 5 mM EGTA, and 5 mM MgCl2, and homogenized. Aliquots of the resuspended and homogenized membranes containing the Nluc-IL23R fusion protein were stored at −80° C. until use.
The plate was sealed with light impermeable plate seals, and incubated on a orbital shaker 400 rpm for 2 hours at room temperature. To determine the BRET ratio, the plate seal was removed and 25 μL of the Nanoluc substrate (Promega N1572) diluted 1:500 was added to each well and incubated for 1-2 minutes on an orbital shaker at 400 rpm. […] The BRET ratio was calculated as the fluorescence from the TAMRA/nanoluc bioluminescence. The IC50 for each compound was determined by computer-aided curve fitting using a 4-parameter logistic (4PL) non-linear model.

[1] = Table 3-1, read-out: Ki hIL-23R

Compound | Ki [1] [nM] | other results
CC(C)C[C@@H]1NC(=O)[C@H](Cc2c[nH]c3ccccc23)NC(=O)[C@H](Cc2c[nH]c3ccccc23)NC(=O)[C@@H]2CSSC[C@H](NC(=O)[C@H](CO)NC(=O)[C@@H](NC(=O)[C@@H](N)CC(=O)O)CSCC(=O)CSC[C@@H](C(=O)N[C@@H](CCCNC(=N)N)C(N)=O)NC1=O)C(=O)N[C@@H](Cc1c[nH]c3ccccc13)C(=O)N[C@@H](CCC(N)=O)C(=O)N2 [Compound 53, H-DC(1a)SC(2b)WQC(2b)WWLC(1a)R-[NH2]] | – | Ki: > 1000 nM
CC(C)C[C@]1(C)NC(=O)[C@H](Cc2c[nH]c3ccccc23)NC(=O)[C@H](Cc2c[nH]c3ccccc23)NC(=O)[C@@H]2CSCC(=O)CSC[C@H](NC(=O)[C@H]([C@@H](C)O)NC(=O)[C@@H](NC(=O)CN)CSCC(=O)CSC[C@@H](C(=O)N[C@@H](CO)C(N)=O)NC1=O)C(=O)N[C@@H](Cc1c[nH]c3ccccc13)C(=O)N[C@@H](CCC(=O)O)C(=O)N2 (single isomer, unassigned) [I5 (isomer 3), H-GC(1a)TC(2a)WEC(2a)WW[2-Me-Leu]C(1a)S-[NH2], reference compound] | – | potency for IL-23R (in words) (in comparison with Protagonist's Compound C): lower potency
CC(C)C[C@]1(C)NC(=O)[C@H](Cc2ccc3ccccc3c2)NC(=O)[C@H](Cc2ccc(OCCN)cc2)NC(=O)[C@@H]2CSCC(=O)CSC[C@H](NC(=O)[C@H](CO)NC(=O)c3cccc(c3)CNC(=O)CC[C@@H](C(=O)N[C@@H](CCCNC(=N)N)C(=O)N[C@@H](Cc3ccncc3)C(N)=O)NC1=O)C(=O)N[C@@H](Cc1c[nH]c3ccccc13)C(=O)N[C@@H](CCC(N)=O)C(=O)N2 [Compound 79, [(3-Aminomethyl)benzoyl](1c)*SC(2a)WQC(2a)[Y(2-aminoethoxy)][2-Nal][2-Me-Leu]E(1c)R[3-(4-Pyridyl)-Ala]-[NH2]] ([3Amb]SCWQC[AEF][2Nal][αMeL]ER[4Pal]-NH2; linker 3-6 via CH2COCH2; lactam N-10) | 2.09 | –
CC(C)C[C@]1(C)NC(=O)[C@H](Cc2ccc3ccccc3c2)NC(=O)[C@H](Cc2ccc(OCCN)cc2)NC(=O)[C@@H]2CCNC(=O)CC[C@H](NC(=O)[C@H](C(C)C)NC(=O)Cc3ccc(cc3)CNC(=O)CC[C@@H](C(=O)N[C@@H](CCN)C(N)=O)NC1=O)C(=O)N[C@@H](Cc1c[nH]c3ccccc13)C(=O)N[C@@H](CCC(N)=O)C(=O)N2 [Compound 126, [4-Aminomethyl-phenylacetyl](1c)*VE(2c)WQ[Dab](2c)[Y(2-aminoethoxy][2-Nal][2-Me-Leu]E(1c)[Dab]-[NH2]] ([X1]VEWQ[Dab][AEF][2Nal][αMeL]E[Dab]-NH2; lactam 3-6, N-10) | 0.718 | –
CC[C@H](C)[C@@H]1NC(=O)Cc2ccc(cc2)CNC(=O)CC[C@@H](C(=O)N[C@@H](CCN)C(=O)N[C@@H](Cc2cccnc2)C(N)=O)NC(=O)[C@](C)(C(C)C)NC(=O)[C@H](Cc2ccc3ccccc3c2)NC(=O)[C@H](Cc2ccc(OCCN)cc2)NC(=O)[C@@H]2CCNC(=O)CC[C@H](NC1=O)C(=O)N[C@@H](Cc1c[nH]c3ccccc13)C(=O)N[C@@H](CCC(N)=O)C(=O)N2 [Compound 157, [4-Aminomethyl-phenylacetyl](1c)*IE(2c)WQ[Dab](2c)[Y(2-aminoethoxy)][2-Nal][2-Me-Val]E(1c)[Dab][3-(3-Pyridyl)-Ala]-[NH2]] ([X1]IEWQ[Dab][AEF][2Nal][αMeV]E[Dab][3Pal]-NH2; lactam 3-6, N-10) | 0.0117 | –
CC(C)C[C@]1(C)NC(=O)[C@H](Cc2ccc3ccccc3c2)NC(=O)[C@H](Cc2ccc(OCCN)cc2)NC(=O)[C@@H]2CSCC(=O)CSC[C@H](NC(=O)[C@H](CO)NC(=O)Cc3ccc(cc3)CNC(=O)CC[C@@H](C(=O)N[C@@H](CCCNC(=N)N)C(N)=O)NC1=O)C(=O)N[C@@H](Cc1c[nH]c3ccccc13)C(=O)N[C@@H](CCC(N)=O)C(=O)N2 [Compound 52, [4-Aminomethyl-phenylacetyl](1c)*SC(2a)WQC(2a)[Y(2-aminoethoxy)][2-Nal][2-Me-Leu]E(1c)R-[NH2]] ([X1]SCWQC[AEF][2Nal][αMeL]ER-NH2; linker 3-6 via CH2COCH2; lactam N-10) | – | Ki (hIL-23R, Ki from IC50 by Cheng-Prusoff equation, read-out: Ki determined affinity): 0.057 nM
CC(C)C[C@]1(C)NC(=O)[C@H](Cc2ccc3ccccc3c2)NC(=O)[C@H](Cc2ccc(OCCN)cc2)NC(=O)[C@@H]2CSCC(=O)CSC[C@H](NC(=O)[C@H](CO)NC(=O)Cc3ccc(cc3)CNC(=O)CC[C@@H](C(=O)N[C@H](CCCNC(=N)N)C(=O)O)NC1=O)C(=O)N[C@@H](Cc1c[nH]c3ccccc13)C(=O)N[C@@H](CCC(N)=O)C(=O)N2 [Compound 108, [4-Aminomethyl-phenylacetyl](1c)*SC(2a)WQC(2a)[Y(2-aminoethoxy)][2-Nal][2-Me-Leu]E(1c)[{d}R]-[OH]] ([X1]SCWQC[AEF][2Nal][αMeL]E[dR]-OH; linker 3-6 via CH2COCH2; lactam N-10) | 0.0995 | –
Cc1cccc2c(C[C@@H]3NC(=O)[C@@H]4CSCC(=O)CSC[C@H](NC(=O)[C@H](CCC(N)=O)NC3=O)C(=O)N[C@@H](Cc3ccc(OCCN)cc3)C(=O)N[C@@H](Cc3ccc5ccccc5c3)C(=O)N[C@@](C)(CC(C)C)C(=O)N[C@H](C(=O)N[C@@H](CCCNC(=N)N)C(N)=O)CCC(=O)NCc3cccc(c3)C(=O)N[C@@H](CO)C(=O)N4)c[nH]c12 [Compound 70, [(3-Aminomethyl)benzoyl](1c)*SC(2a)[7-Me-Trp]QC(2a)[Y(2-aminoethoxy)][2-Nal][2-Me-Leu]E(1c)R-[NH2]] ([3Amb]SC[Trp(7-Me)]QC[AEF][2Nal][αMeL]ER-NH2; linker 3-6 via CH2COCH2; lactam N-10) | 0.485 | –
CC(C)C[C@]1(C)NC(=O)[C@H](Cc2ccc3ccccc3c2)NC(=O)[C@H](Cc2ccc(OCCN)cc2)NC(=O)[C@@H]2CCNC(=O)CC[C@H](NC(=O)[C@H](CO)NC(=O)Cc3ccc(cc3)CNC(=O)CC[C@@H](C(=O)N[C@@H](CCN)C(N)=O)NC1=O)C(=O)N[C@@H](Cc1c[nH]c3c(F)cccc13)C(=O)N[C@@H](CCC(N)=O)C(=O)N2 [Compound 139, [4-Aminomethyl-phenylacetyl](1c)*SE(2c)[7-F-Trp]Q[Dab](2c)[Y(2-aminoethoxy)][2-Nal][2-Me-Leu]E(1c)[Dab]-[NH2]] ([X1]SE[Trp(7-F)]Q[Dab][AEF][2Nal][αMeL]E[Dab]-NH2; lactam 3-6, N-10) | 0.612 | –
CC(C)C[C@]1(C)NC(=O)[C@H](Cc2ccc3ccccc3c2)NC(=O)[C@H](Cc2ccc(OCCN)cc2)NC(=O)[C@@H]2CCNC(=O)CC[C@H](NC(=O)[C@H](CCC(=O)N3CCCC3)NC(=O)Cc3ccc(cc3)CNC(=O)CC[C@@H](C(=O)N[C@@H](CCN)C(N)=O)NC1=O)C(=O)N[C@@H](Cc1c[nH]c3ccccc13)C(=O)N[C@@H](CCC(N)=O)C(=O)N2 [Compound 145, [4-Aminomethyl-phenylacetyl](1c)*[Q(pyrrolidin)]E(2c)WQ[Dab](2c)[Y(2-aminoethoxy)][2-Nal][2-Me-Leu]E(1c)[Dab]-[NH2]] ([X1]E(Pyrrolidide)EWQ[Dab][AEF][2Nal][αMeL]E[Dab]-NH2; lactam 3-6, N-10) | 0.723 | –
